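Step 1: Grow cells in 96-well plates. Step 2: Expose to compound for 48 hours at 5 concentrations. Step 3: Interpolate endpoints linearly; if unreached, use highest concentration. GI50 marks 50% less growth.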 Active and inactive are the calls of the source. Rule as the data show it: active = GI50 up to about 1.1 µM and inactive = higher.
Assays:
Test in all cases: NCI tumour cell line growth inhibition, 48 h
NCI-H226 = tested on: NCI-H226
HCT-15 = tested on: HCT-15
SW-620 = tested on: SW-620
IGROV-1 = tested on: IGROV-1
MDA-N = tested on: MDA-N
A498 = tested on: A498
UO-31 = tested on: UO-31
K562 = tested on: K562
RPMI-8226 = tested on: RPMI-8226
SK-MEL-2 = tested on: SK-MEL-2
HL-60 = tested on: HL-60
NCI-H23 = tested on: NCI-H23
NCI/ADR-RES = tested on: NCI/ADR-RES
MDA-MB-231 = tested on: MDA-MB-231
SK-OV-3 = tested on: SK-OV-3
SF-539 = tested on: SF-539
HOP-62 = tested on: HOP-62
OVCAR-5 = tested on: OVCAR-5
U-251 = tested on: U-251
HCC 2998 = tested on: HCC 2998

Row | SMILES | GI50 (NCI-H226) | GI50 (HCT-15) [µM] | GI50 (SW-620) | GI50 (IGROV-1) | GI50 (MDA-N) | GI50 (A498) | GI50 (UO-31) | GI50 (K562) | GI50 (RPMI-8226) | GI50 (SK-MEL-2) | GI50 (HL-60) | GI50 (NCI-H23) | GI50 (NCI/ADR-RES) | GI50 (MDA-MB-231) | GI50 (SK-OV-3) | GI50 (SF-539) | GI50 (HOP-62) | GI50 (OVCAR-5) | GI50 (U-251) | GI50 (HCC 2998)
1 | [O-][N+]1(CC[N+]2([O-])CCCCC2)CCCCC1 | > 100 µM (inactive) | > 100 | > 100 µM (inactive) | > 100 µM (inactive) | > 100 µM (inactive) | > 100 µM (inactive) | > 100 µM (inactive) | > 100 µM (inactive) | > 100 µM (inactive) | > 100 µM (inactive) | > 100 µM (inactive) | > 100 µM (inactive) | > 100 µM (inactive) | > 100 µM (inactive) | > 100 µM (inactive) | > 100 µM (inactive) | > 100 µM (inactive) | > 100 µM (inactive) | > 100 µM (inactive) | 
2 | Nc1ccc2c(c1)S(=O)(=O)c1cc(O)ccc1O2 | > 100 µM (inactive) | > 100 | > 100 µM (inactive) | > 100 µM (inactive) | > 100 µM (inactive) | 31.2 µM (inactive) | 55.3 µM (inactive) | > 100 µM (inactive) |  | > 100 µM (inactive) | > 100 µM (inactive) | > 100 µM (inactive) | > 100 µM (inactive) | > 100 µM (inactive) | > 100 µM (inactive) | > 100 µM (inactive) | > 100 µM (inactive) | > 100 µM (inactive) | > 100 µM (inactive) | > 100 µM (inactive)
3 | Cc1ccc(/N=N/C(=N\c2ccc(Cl)cc2)c2ccc(N(CCC#N)CCC#N)cc2)cc1 | > 100 µM (inactive) | 14.2 | 58.9 µM (inactive) | 30.3 µM (inactive) | 55.6 µM (inactive) | > 100 µM (inactive) | 6.89 µM (inactive) | > 100 µM (inactive) | > 100 µM (inactive) |  |  | 48.6 µM (inactive) | 57.8 µM (inactive) | 25.8 µM (inactive) | > 100 µM (inactive) | 47.4 µM (inactive) | 58.3 µM (inactive) | > 100 µM (inactive) | 25.2 µM (inactive) | 18.8 µM (inactive)
4 | CCCCC(C#N)(OP1(=O)OC(c2ccccc2)C(C)N1C)c1ccccc1 (configuration not stated) |  | 20.3 | 16.4 µM (inactive) | 16.7 µM (inactive) | 16.4 µM (inactive) | 18.9 µM (inactive) | 17.3 µM (inactive) | 19 µM (inactive) | 20.8 µM (inactive) | 19.2 µM (inactive) | 14.4 µM (inactive) | 19.7 µM (inactive) | 20 µM (inactive) | 15.7 µM (inactive) | 19.5 µM (inactive) | 15.5 µM (inactive) | 21.6 µM (inactive) | 17.1 µM (inactive) | 17.3 µM (inactive) | 15.1 µM (inactive)
5 | O=C(/C=C/c1ccc2c(c1)OCO2)Cc1nc2ncccc2[nH]c1=O |  | 92.7 | > 100 µM (inactive) | 94.6 µM (inactive) | > 100 µM (inactive) | > 100 µM (inactive) | > 100 µM (inactive) | 5.55 µM (inactive) | > 100 µM (inactive) | > 100 µM (inactive) | > 100 µM (inactive) | > 100 µM (inactive) | > 100 µM (inactive) | > 100 µM (inactive) | 98.9 µM (inactive) | 53.7 µM (inactive) | 39 µM (inactive) | > 100 µM (inactive) | 31.1 µM (inactive) | > 100 µM (inactive)
6 | c1ccc(/C(=N\Nc2nc3ccccc3[nH]2)c2ccccn2)cc1 | 0.256 µM (active) | 0.277 | 0.204 µM (active) | 0.262 µM (active) | 0.762 µM (active) | 0.916 µM (active) | 0.291 µM (active) | 0.222 µM (active) | 0.242 µM (active) | 4.09 µM (inactive) |  | 0.381 µM (active) | 0.284 µM (active) | 0.415 µM (active) | 0.342 µM (active) | 0.388 µM (active) | 0.324 µM (active) | 0.733 µM (active) | 0.407 µM (active) | 1.73 µM (inactive)
7 | O=C(O)CCc1nc2cc3ccccc3cc2[nH]c1=O | > 100 µM (inactive) | > 100 | > 100 µM (inactive) | > 100 µM (inactive) | > 100 µM (inactive) | > 100 µM (inactive) | > 100 µM (inactive) | > 100 µM (inactive) |  | > 100 µM (inactive) |  | > 100 µM (inactive) | > 100 µM (inactive) | > 100 µM (inactive) | > 100 µM (inactive) | > 100 µM (inactive) | > 100 µM (inactive) | > 100 µM (inactive) | > 100 µM (inactive) | > 100 µM (inactive)
8 | COC(COC(=O)N1CCN(C=O)CC1)C1=C(N2CC2)C(=O)C(C)=C(N2CC2)C1=O (configuration not stated) | 0.582 µM (active) | 1.73 | 0.141 µM (active) | 0.271 µM (active) | 0.248 µM (active) | 1.51 µM (inactive) | 0.486 µM (active) | 0.462 µM (active) | 0.362 µM (active) | 0.705 µM (active) |  | 0.0675 µM (active) | 5.57 µM (inactive) | 2.29 µM (inactive) | 0.195 µM (active) | 0.0632 µM (active) | 0.191 µM (active) | 2.56 µM (inactive) | 0.219 µM (active) | 21.2 µM (inactive)
9 | O=C(/C=C/c1ccc(Cl)cc1)c1cccs1 | 22.4 µM (inactive) | 17.5 | 12.9 µM (inactive) | 29.9 µM (inactive) | 16.3 µM (inactive) | 23.3 µM (inactive) | 18 µM (inactive) | 4.03 µM (inactive) | 3.1 µM (inactive) | 24.5 µM (inactive) | 7.19 µM (inactive) | > 10 µM (inactive) | 24.3 µM (inactive) | 20 µM (inactive) | 26.4 µM (inactive) | 34.3 µM (inactive) | 26.5 µM (inactive) |  | 16 µM (inactive) | 18.6 µM (inactive)
10 | CN(C)CCNC(=O)c1cccc2c(NC(CCCNC(=N)N)C(=O)O)c3ccccc3[n+](C)c12 (configuration not stated) | 39.5 µM (inactive) | > 100 | 53.5 µM (inactive) | 59 µM (inactive) | 61.5 µM (inactive) | > 100 µM (inactive) | > 100 µM (inactive) | > 100 µM (inactive) | > 100 µM (inactive) | > 100 µM (inactive) |  | > 100 µM (inactive) | 27.7 µM (inactive) | 37.1 µM (inactive) | > 100 µM (inactive) | 83.8 µM (inactive) | 68.1 µM (inactive) | > 100 µM (inactive) | > 100 µM (inactive) | 69.5 µM (inactive)
11 | COc1ccc(OC)c2sc(N3C(=O)/C(=C/c4ccc(Cl)cc4)N=C3c3ccccc3)nc12 |  | 98.4 | 67.9 µM (inactive) | 85.9 µM (inactive) | 34.2 µM (inactive) | > 100 µM (inactive) | > 100 µM (inactive) | 26.2 µM (inactive) | 33.7 µM (inactive) | > 100 µM (inactive) | 40.6 µM (inactive) | > 100 µM (inactive) | > 100 µM (inactive) | > 100 µM (inactive) | > 100 µM (inactive) | > 100 µM (inactive) | > 100 µM (inactive) | > 100 µM (inactive) | 40.7 µM (inactive) | 80.2 µM (inactive)
12 | Cc1c(-c2ccccc2)[nH]c2cn[nH]c(=O)c12 |  | 55.3 | > 100 µM (inactive) | > 100 µM (inactive) | > 100 µM (inactive) | > 100 µM (inactive) | 80 µM (inactive) | 99.8 µM (inactive) | 74 µM (inactive) | 90.8 µM (inactive) | 10.7 µM (inactive) | > 100 µM (inactive) | 73.8 µM (inactive) | > 100 µM (inactive) | 42.5 µM (inactive) | > 100 µM (inactive) | 50.9 µM (inactive) | > 100 µM (inactive) | > 100 µM (inactive) | > 100 µM (inactive)
13 | CCOC(=O)C1C(c2ccc(OC)cc2)c2c(n[nH]c2O)CC1(C)O (configuration not stated) |  | > 100 | > 100 µM (inactive) | > 100 µM (inactive) | > 100 µM (inactive) | > 100 µM (inactive) | > 100 µM (inactive) |  | > 100 µM (inactive) | > 100 µM (inactive) | > 100 µM (inactive) | > 100 µM (inactive) | > 100 µM (inactive) | > 100 µM (inactive) |  | > 100 µM (inactive) | > 100 µM (inactive) | > 100 µM (inactive) | > 100 µM (inactive) | > 100 µM (inactive)
14 | NS(=O)(=O)c1ccc(/N=N/c2cccnc2O)cc1 | > 100 µM (inactive) | > 100 | > 100 µM (inactive) | > 100 µM (inactive) | > 100 µM (inactive) | > 100 µM (inactive) | > 100 µM (inactive) | > 100 µM (inactive) | > 100 µM (inactive) | > 100 µM (inactive) | > 100 µM (inactive) | > 100 µM (inactive) | > 100 µM (inactive) | > 100 µM (inactive) | > 100 µM (inactive) | > 100 µM (inactive) | > 100 µM (inactive) | > 100 µM (inactive) | > 100 µM (inactive) | 
